What was measured:
Assay in all cases: relative viability (nuclei count vs DMSO), 5 days (fraction); higher = more cells survive
BAY61-3606 + OSI-027 = compound: COC1=C(C=C(C=C1)C2=CC3=NC=CN3C(=N2)NC4=C(C=CC=N4)C(=O)N)OC [BAY61-3606] + COc1cccc2cc(-c3nc([C@H]4CC[C@H](C(=O)O)CC4)n4ncnc(N)c34)[nH]c12 [OSI-027] (partner 0.5 µM)
Method in brief: (§1)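 Relative viability was taken as the ratio of nuclei in treated wells to nuclei in vehicle wells. Lung cancer cell lines in 1536-well plates received compounds by pin tool one day after seeding, either one drug alone or a fixed anchor-drug dose plus five library-drug doses (not always all listed) in √10 steps. Nuclei were counted on 4× images after 5 days of treatment, and values are medians of duplicate plates.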

BAY61-3606 + Vorinostat = compound: COC1=C(C=C(C=C1)C2=CC3=NC=CN3C(=N2)NC4=C(C=CC=N4)C(=O)N)OC [BAY61-3606] + O=C(CCCCCCC(=O)Nc1ccccc1)NO [Vorinostat] (partner 1 µM)
Method in brief: as §1

Doxorubicin + Navitoclax = compound: COc1cccc2c1C(=O)c1c(O)c3c(c(O)c1C2=O)C[C@@](O)(C(=O)CO)C[C@@H]3O[C@H]1C[C@H](N)[C@H](O)[C@H](C)O1 [Doxorubicin] + CC1(C)CCC(c2ccc(Cl)cc2)=C(CN2CCN(c3ccc(C(=O)NS(=O)(=O)c4ccc(N[C@H](CCN5CCOCC5)CSc5ccccc5)c(S(=O)(=O)C(F)(F)F)c4)cc3)CC2)C1 [Navitoclax] (partner 0.5 µM)
Method in brief: as §1

Doxorubicin + Linsitinib = compound: COc1cccc2c1C(=O)c1c(O)c3c(c(O)c1C2=O)C[C@@](O)(C(=O)CO)C[C@@H]3O[C@H]1C[C@H](N)[C@H](O)[C@H](C)O1 [Doxorubicin] + C[C@]1(O)C[C@@H](c2nc(-c3ccc4ccc(-c5ccccc5)nc4c3)c3c(N)nccn32)C1 [Linsitinib] (partner 1 µM)
Method in brief: as §1

| Cell Line | relative viability (BAY61-3606 + OSI-027; first compound 0.02 µM) | relative viability (BAY61-3606 + OSI-027; first compound 0.06325 µM) | relative viability (BAY61-3606 + OSI-027; first compound 0.2 µM) | relative viability (BAY61-3606 + OSI-027; first compound 0.6325 µM) | relative viability (BAY61-3606 + OSI-027; first compound 2 µM) | relative viability (BAY61-3606 + Vorinostat; first compound 0.02 µM) | relative viability (BAY61-3606 + Vorinostat; first compound 0.06325 µM) | relative viability (BAY61-3606 + Vorinostat; first compound 0.2 µM) | relative viability (BAY61-3606 + Vorinostat; first compound 0.6325 µM) | relative viability (BAY61-3606 + Vorinostat; first compound 2 µM) | relative viability (Doxorubicin + Navitoclax; first compound 0.001 µM) | relative viability (Doxorubicin + Navitoclax; first compound 0.003162 µM) | relative viability (Doxorubicin + Navitoclax; first compound 0.01 µM) | relative viability (Doxorubicin + Navitoclax; first compound 0.03162 µM) | relative viability (Doxorubicin + Navitoclax; first compound 0.1 µM) | relative viability (Doxorubicin + Linsitinib; first compound 0.001 µM) | relative viability (Doxorubicin + Linsitinib; first compound 0.003162 µM) | relative viability (Doxorubicin + Linsitinib; first compound 0.01 µM) | relative viability (Doxorubicin + Linsitinib; first compound 0.03162 µM) | relative viability (Doxorubicin + Linsitinib; first compound 0.1 µM) |
| --- | --- | --- | --- | --- | --- | --- | --- | --- | --- | --- | --- | --- | --- | --- | --- | --- | --- | --- | --- | --- |
| NCI-H1395 | 0.721 | 0.581 | 0.601 | 0.635 | 0.629 | 0.736 | 0.705 | 0.595 | 0.705 | 0.706 | 0.992 | 1 | 1.07 | 0.861 | 0.898 | 1.03 | 1.09 | 1.02 | 1.11 | 0.92 |
| NCI-H1437 | 0.941 | 0.924 | 0.921 | 0.936 | 0.784 | 0.919 | 0.915 | 0.856 | 0.925 | 0.751 | 1.03 | 1.12 | 1.02 | 0.75 | 0.379 | 1 | 1.13 | 0.965 | 0.591 | 0.28 |
| NCI-H1651 | 0.702 | 0.627 | 0.664 | 0.637 | 0.499 | 0.62 | 0.509 | 0.523 | 0.539 | 0.542 | 0.991 | 1.19 | 0.801 | 0.436 | 0.204 | 0.838 | 0.944 | 0.831 | 0.401 | 0.292 |
| NCI-H1666 | 0.817 | 0.84 | 0.824 | 0.894 | 0.841 | 1.02 | 1.14 | 1.12 | 1.05 | 1.18 | 0.882 | 0.953 | 0.55 | 0.282 | 0.275 | 0.803 | 0.762 | 0.561 | 0.268 | 0.285 |
| NCI-H1734 | 0.605 | 0.523 | 0.529 | 0.542 | 0.372 | 0.826 | 0.804 | 0.651 | 0.769 | 0.441 | 0.788 | 1.02 | 0.847 | 0.696 | 0.84 | 0.945 | 0.922 | 0.826 | 0.731 | 0.871 |
| NCI-H1755 | 0.743 | 0.657 | 0.701 | 0.712 | 0.671 | 0.871 | 0.676 | 0.764 | 0.803 | 0.733 | 1 | 1.03 | 0.927 | 0.991 | 1.02 | 0.971 | 0.98 | 1.02 | 1.05 | 1.01 |

From the supplement of paper PMC10307832
